In patent publication US10442835B2, “Water-soluble rapamycin derivatives” (Zhejiang Hisun Pharmaceutical Co., Ltd., priority 2016, dated 2019):

Tests used:
[1] = system: human lung cancer cell NCI-H460; experiment: In vivo inhibitory activity against NCI-H460 tumor in nude mice; settings: Day 28; everolimus 5 mg/kg, compound I-1 6.8 mg/kg, qw 4×
[2] = system: human liver cancer cell HepG2; experiment: In vitro activity assay, growth of HepG2 (thymidine incorporation); type: cell-based; settings: 48 h
From the text: (§1) The anti-tumor activity and toxicity of the compounds according to the present invention can be assayed through standard operational procedures of pharmacological experiment. The experiments carried out herein can test the inhibitory effect of the compounds according to the present invention on the growth of human liver cancer cell HepG2, lung cancer cell NCI460, prostate cancer cell DU145, prostate cancer cell PC3, and human breast cancer cell MDA-MB-435. The operational procedure used is briefly described below by taking the inhibitory activity assay against human liver cancer cell HepG2 as an example.
Human liver cancer cell HepG2 grew in the follow medium:
Preparation of the growth medium: BRL minimum essential medium with Earle Salts (500 mL), with the addition of the following agents:
(§2) The operational procedure for the assay is as follows:
(§3) 1. Cells after being trypsinized were inoculated in 96-well plates at a concentration of 10^4 cells/well, and allowed to grow in a medium with a final volume of 200 μL. The 96-well plates after inoculation are allowed to stand for 24 hours at 37° C., in order to allow the cells to adhere to the surface of the wells.
(§4) 2. The medium was removed by carefully pipetting without disturbing the cell monolayer. 200 μL Fresh medium was added into each well. It is arranged to make it possible to collect samples from enough wells to run the experiments in triplicate.
(§5) 3. The compounds to be tested according to the present invention were dissolved into 10 μL phosphate buffered solution (PBS) and incubated for 48 h at 37° C.
(§6) 4. In the last 6 h of incubation, cells in each well of the 96-well plates were labeled by 1 microcurie T thymidine (New England Nuclear thymidine), by adding 10 μL PBS containing 1 microcurie T thymidine (which was added into the PBS on the day of collecting the samples for test). The 96-well plates were then returned to the incubator and incubated for the last 6 h.
(§7) 5. Without disturbing the cell monolayer, the radioactive medium was removed by pipetting. Then 50 μL of BRL 10×trypsin was added to each well, followed by incubation at 37° C. for 10 minutes or until the cell monolayer was detached from the bottom (or the wall) of each well. Samples were collected on glass-fiber diskettes using a Skatron 96-well cell harvester. Cells depositing on the glass-fiber diskettes were counted in a Wallac Betaplate counter.

[3] = system: prostate cancer cell DU145; experiment: In vitro activity assay, growth of DU145; type: cell-based; settings: Homo sapiens; DU-145; 48 h
From the text: as §1, §2, §3, §4, §5, §6, §7

[4] = system: human renal cell carcinoma OS-RC-2; experiment: In vivo inhibitory activity against human renal cell carcinoma OS-RC-2 in nude mice; settings: for Tumor Weight ± SD: end of experiment
Procedure: The tumor inhibition rate was calculated.

lung cancer cell NCI460 = experiment: In vitro activity assay, growth of NCI460; type: cell-based; settings: NCI-460, 48 h
From the text: as §1, §2, §3, §4, §5, §6, §7

DU145 = experiment: In vivo tumor inhibitory efficacy against DU145 tumor in nude mice, intragastrical vs injection; settings: for Mean Volume of Tumor: 3×/w, 4 w; for tumor inhibitory effect compared with intragastrical everolimus 5 mg/kg: compound I-1 tail vein injection, end of the test
Procedure: DU145 (the 3rd generation) tumors in the rapid proliferation stage inoculated in the axilla of nude mice were cut into tumor lumps with a size of 1 mm*1 mm*1 mm and then were inoculated subcutaneously to the right limb of nude mice using a trocar under a sterile condition. When the tumors grow to 150-200 mm^3, the mice were randomly divided into three groups and then administrated with the compounds for 4 weeks. The major diameter (a) and the minor diameter (b) of the tumors were measured 2 or 3 times a week. The tumor volume (TV) was calculated with the following equation: TV=½×a×b^2. Tumors were stripped and weighted at Day 28 and the tumor inhibition rate was calculated using the following equation: (tumor weight of control−tumor weight of experimental group)/tumor weight of control×100%.
The nude mice were divided into 3 groups with 4 mice per group when the tumors averagely grew to about 185-200 mm^3, depending on the growth regularity of the tumor and the dosage regimen.

prostate cancer cell PC3 = experiment: In vitro activity assay, growth of PC3; type: cell-based; settings: 48 h
From the text: as §1, §2, §3, §4, §5, §6, §7

[5] = Body weight of NCI-H460 tumor nude mice; settings: for Body Weights, mean value / Decrease rate (body weight) / Decrease in body weight: everolimus 5 mg/kg, compound I-1 6.8 mg/kg, qw 4×;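 for all read-outs here: Tumor-bearing mice dosed for 4 weeks once tumors reached 150–200 mm^3, with a vehicle control group, and body weight loss taken as an indirect sign of drug toxicity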
Procedure: NCI-H460 (the 3rd generation) tumors in the rapid proliferation stage inoculated in the axilla of nude mice were cut into tumor lumps with a size of 1 mm*1 mm*1 mm and then were inoculated subcutaneously to the right limb of nude mice using a trocar under a sterile condition. When the tumors grew to 150˜200 mm^3, the mice were divided into groups and then administrated with the compounds for 4 weeks. The major diameter (a) and the minor diameter (b) of the tumors were measured two or three times a week. The tumor volume (TV) and the relative tumor proliferation rate (T/C) were calculated. The equation for calculating the tumor volume is: TV=½×a×b^2. The equation for calculating the relative tumor proliferation rate is T/C=TRTC/CRTV (TRTC: average relative tumor volume in the treatment group; CRTV: average relative tumor volume in the vehicle control group). Tumors were stripped and weighted at Day 28 and the tumor-inhibition rate was calculated with the following equation: (tumor weight of control−tumor weight of experimental group)/tumor weight of control×100%.
Grouping method: the mice were divided into 3 groups with 6 mice per group when the tumors averagely grew to about 195 mm^3, depending on the growth regularity of the tumor and the dosage regimen. Administration route: intragastrical administration.
G1: Control (vehicle, qw 4×, iv)
G2: Positive drug group: Everolimus (5 mg/kg, qw 4×, iv)

[6] = G4 compound I-1 8.12 mg/kg ig 3×/qw
[7] = G5 compound I-1 2.0 mg/kg iv 3×/qw
[8] = G6 compound I-1 8.12 mg/kg iv 3×/qw
[9] = G7 compound I-1 32.7 mg/kg iv 1×/qw

SMILES: CO[C@H]1C[C@@H]2CC[C@@H](C)[C@@](O)(O2)C(=O)C(=O)N2CCCC[C@H]2C(=O)OC([C@H](C)C[C@@H]2CC[C@@H](OCCOC(=O)CSC[C@H](NC(=O)CC[C@H](N)C(=O)O)C(=O)NCC(=O)O)[C@H](OC)C2)CC(=O)[C@H](C)/C=C(\C)[C@@H](O)[C@@H](OC)C(=O)[C@H](C)C[C@@H](C)\C=C/C=C/C=C/1C (stereo partly shown) [Compound I-1]
- Mean Volume of Tumor [1]: 1354.8457 mm^3
- Tumor Weight ± SD [1]: 0.8463 ± 0.1582 g
- IC50 [2]: 11.127 ± 0.005 µM
- IC50 [3]: 56.215 ± 0.003 µM
- Tumor Inhibition Rate [4, 6]: 55.6%
- Tumor Inhibition Rate [4, 7]: 57.1%
- Tumor Inhibition Rate [4, 8]: 59.9%
- Tumor Inhibition Rate [4, 9]: 60.6%
- tumor inhibitory effect (FIG. 7) ([4]; compound I-1 injection, 2.0 mg/Kg 3 times a week or 32.7 mg/Kg once a week): a good tumor inhibitory effect
- Tumor Weight ± SD [4, 6]: 0.3002 ± 0.1108 g
- Tumor Weight ± SD [4, 7]: 0.2905 ± 0.0936 g
- Tumor Weight ± SD [4, 8]: 0.2710 ± 0.1695 g
- Tumor Weight ± SD [4, 9]: 0.2669 ± 0.1023 g
- IC50 (lung cancer cell NCI460): 27.204 ± 0.007 µM
- Mean Volume of Tumor (DU145; Day 0, G2 compound I-1 3.4 mg/kg tail vein injection): 189.84 mm^3
- Mean Volume of Tumor (DU145; Day 0, G3 compound I-1 1.7 mg/kg tail vein injection): 187.29 mm^3
- Mean Volume of Tumor (DU145; Day 3, G2 compound I-1 3.4 mg/kg tail vein injection): 203.79 mm^3
- Mean Volume of Tumor (DU145; Day 3, G3 compound I-1 1.7 mg/kg tail vein injection): 235.34 mm^3
- Mean Volume of Tumor (DU145; Day 7, G2 compound I-1 3.4 mg/kg tail vein injection): 223.91 mm^3
- Mean Volume of Tumor (DU145; Day 7, G3 compound I-1 1.7 mg/kg tail vein injection): 250.90 mm^3
- Mean Volume of Tumor (DU145; Day 10, G2 compound I-1 3.4 mg/kg tail vein injection): 245.45 mm^3
- Mean Volume of Tumor (DU145; Day 10, G3 compound I-1 1.7 mg/kg tail vein injection): 269.25 mm^3
- Mean Volume of Tumor (DU145; Day 14, G2 compound I-1 3.4 mg/kg tail vein injection): 255.59 mm^3
- Mean Volume of Tumor (DU145; Day 14, G3 compound I-1 1.7 mg/kg tail vein injection): 281.22 mm^3
- Mean Volume of Tumor (DU145; Day 17, G2 compound I-1 3.4 mg/kg tail vein injection): 261.55 mm^3
- Mean Volume of Tumor (DU145; Day 17, G3 compound I-1 1.7 mg/kg tail vein injection): 280.18 mm^3
- Mean Volume of Tumor (DU145; Day 21, G2 compound I-1 3.4 mg/kg tail vein injection): 257.96 mm^3
- Mean Volume of Tumor (DU145; Day 21, G3 compound I-1 1.7 mg/kg tail vein injection): 300.52 mm^3
- Mean Volume of Tumor (DU145; Day 24, G2 compound I-1 3.4 mg/kg tail vein injection): 241.11 mm^3
- Mean Volume of Tumor (DU145; Day 24, G3 compound I-1 1.7 mg/kg tail vein injection): 288.39 mm^3
- Mean Volume of Tumor (DU145; Day 28, G2 compound I-1 3.4 mg/kg tail vein injection): 267.54 mm^3
- Mean Volume of Tumor (DU145; Day 28, G3 compound I-1 1.7 mg/kg tail vein injection): 323.75 mm^3
- tumor inhibitory effect compared with intragastrical everolimus 5 mg/kg (DU145; dosage equivalent to a quarter of that of everolimus (1.7 mg/kg)): substantially the same tumor inhibitory effect as that of intragastrical administration of everolimus
- tumor inhibitory effect compared with intragastrical everolimus 5 mg/kg (DU145; dosage equivalent to half of that of everolimus (3.4 mg/kg)): significantly superior to that of intragastric administration of everolimus
- IC50 (prostate cancer cell PC3): 25.978 ± 0.008 µM
- Body Weights, mean value ([5]; Day 0): 26.20 g
- Body Weights, mean value ([5]; Day 3): 25.49 g
- Decrease rate (body weight) ([5]; Day 3): 2.73%
- Decrease in body weight ([5]; Day 3 vs Day 0): 0.72 g
- Body Weights, mean value ([5]; Day 7): 26.79 g
- Decrease rate (body weight) ([5]; Day 7): −2.23%
- Decrease in body weight ([5]; Day 7 vs Day 0): -0.58 g
- Body Weights, mean value ([5]; Day 10): 26.20 g
- Decrease rate (body weight) ([5]; Day 10): 0.00%
- Decrease in body weight ([5]; Day 10 vs Day 0): 0.00 g
- Body Weights, mean value ([5]; Day 14): 27.74 g
- Decrease rate (body weight) ([5]; Day 14): −5.87%
- Decrease in body weight ([5]; Day 14 vs Day 0): -1.54 g
- Body Weights, mean value ([5]; Day 17): 27.84 g
- Decrease rate (body weight) ([5]; Day 17): −6.24%
- Decrease in body weight ([5]; Day 17 vs Day 0): -1.64 g
- Body Weights, mean value ([5]; Day 21): 28.42 g
- Decrease rate (body weight) ([5]; Day 21): −8.46%
- Decrease in body weight ([5]; Day 21 vs Day 0): -2.22 g
- Body Weights, mean value ([5]; Day 24): 28.09 g
- Decrease rate (body weight) ([5]; Day 24): −7.20%
- Decrease in body weight ([5]; Day 24 vs Day 0): -1.89 g
- Body Weights, mean value ([5]; Day 28): 29.00 g
- Decrease rate (body weight) ([5]; Day 28): −10.68%
- Decrease in body weight ([5]; Day 28 vs Day 0): -2.80 g
- toxic and side effect in vivo ([5]; judged from body weight, compound I-1 6.8 mg/kg vs everolimus 5 mg/kg): significantly lower than that of everolimus
